Consider one compound from patent US11530196B2, “Pyrimidine compound acting on EGFR and ERBB2” (CHINA RESOURCES PHARMACEUTICAL HOLDINGS COMPANY LIMITED, priority 2019, dated 2022).

Test [1] deals with human lung cancer NCI-H1975 subcutaneous xenograft tumor. The experiment in a line: NCI-H1975 subcutaneous xenograft tumor BALB/c nude mouse model. It is filed as in vivo, BALB/c nude mice. On the procedure:
Human lung cancer NCI-H1975 cells were cultured in vitro in a monolayer under the conditions of 1640 medium with 10% fetal bovine serum, 1% double antibodies and incubated at 37° C. in a 5% CO2 incubator. Routine treatment passages were performed twice a week. When the cell saturation was 80%-90% and the number reached the required level, the cells were collected, counted, and inoculated.
BALB/c nude mice, female, 6-8 weeks old, weighing 18-22 g. Provided by Shanghai Xipuer-Bikai Laboratory Animal Co., Ltd. or other qualified suppliers.
Tumor tissue was collected from H1975 tumor-bearing mice of human lung cancer xenograft model, cut into 2-3 mm diameter tumor blocks and inoculated subcutaneously at the right anterior scapula of Balb/c nude mice. When the average tumor volume was 145 mm^3, the tumors were randomly grouped according to their size, and the day of grouping was defined as day 0.
The experimental index was to examine whether tumor growth was inhibited, delayed or cured. Tumor diameters were measured with vernier calipers twice a week. The calculation formula of tumor volume was: V=0.5a×b^2, wherein a and b represented the long and short diameters of the tumor, respectively. The antitumor efficacy of the compounds was evaluated by TGI (%) or relative tumor proliferation rate T/C (%). TGI (%), reflecting the tumor growth inhibition rate. Calculation of TGI (%): TGI (%)=[(1−(average tumor volume at the end of administration of a treatment group−average tumor volume at the beginning of administration of this treatment group))/(average tumor volume at the end of treatment in the solvent control group−average tumor volume at the beginning of treatment of the solvent control group)]×100%. Relative tumor proliferation rate T/C (%): The calculation formula was as follows: T/C %=TRTV/CRTV×100% (TRTV: RTV in the treatment group; CRTV: RTV in the negative control group). The relative tumor volume (RTV) was calculated according to the results of tumor measurement, and the formula was RTV=Vt/V0, wherein V0 was the average tumor volume measured at the time of group administration (i.e., d0), and Vt was the average tumor volume at a certain measurement, TRTV and CRTV were taken on the same day. After the experiment, the tumor weight will be detected, and the percentage of T/Cweight will be calculated. Tweight and Cweight represented the tumor weight of the administration group and the solvent control group, respectively.

The target in test [2] is Ba/F3 EGFR-H773_V774insNPH (Homo sapiens, UniProt P00533, DUP771-773, cells depend on it). Put plainly: Anti-proliferation against Ba/F3 exon 20 insertion mutant cells (NPH). It is filed as cell-based, mouse. The note with it: CTG, 72 hours, read-out: Mutant cells IC50 (anti-proliferation). The source says: (§1) RPMI1640 medium was purchased from Hyclone, FBS fetal bovine serum was purchased from GBICO, and trypsin-EDTA were both purchased from Giboco. DPBS was purchased from Corning, penicillin/streptomycin solution was purchased from Hyclone, and Cell-Titer Glo reagent was purchased from Promega (Cat. No. G7572). Ba/F3 EGFR-D770_N771insSVD, Ba/F3 EGFR-H773_V774insNPH, Ba/F3 EGFR-V769_D770insASV, BaF3 ERBB2 A775_G776 ins YVMA, the cell lines were constructed by Beijing Kang Yuan Bochuang Biotechnology Co., Ltd. Plate reading instrument: Envision (PerkinElmer).
(§2) Cells in logarithmic growth phase were harvested and cell counts were performed using a […]. Cell viability was detected by the Taipan Blue rejection assay. The cell concentration was adjusted; the cell suspension was added to a 96-well plate separately. Cells in 96-well plates were incubated overnight at 37° C., 5% CO2, and 95% humidity. […] The cell plate was placed at room temperature to stabilize the cold light signal, and the cold light values were read. The data were analyzed using GraphPad Prism 7.0 software, and a nonlinear S-curve regression was used to fit the data to derive the dose-effect curve from which the IC50 values were calculated. […]

The target of test [3] is BaF3 ERBB2 A775_G776 ins YVMA (Homo sapiens, UniProt P04626, DUP772-775, cells depend on it). Put plainly: Anti-proliferation against Ba/F3 exon 20 insertion mutant cells (ERBB2 YVMA). It is filed as cell-based, mouse. The note with it: CTG, 72 hours, read-out: Mutant cells IC50 (anti-proliferation).
Description: as §1, §2

The term T/C denotes the result in the treated group divided by that in the control group, in per cent.

Ba/F3 EGFR-H773_V774insNPH, sequence (P00533 with tags, fused parts or gaps DUP771-773): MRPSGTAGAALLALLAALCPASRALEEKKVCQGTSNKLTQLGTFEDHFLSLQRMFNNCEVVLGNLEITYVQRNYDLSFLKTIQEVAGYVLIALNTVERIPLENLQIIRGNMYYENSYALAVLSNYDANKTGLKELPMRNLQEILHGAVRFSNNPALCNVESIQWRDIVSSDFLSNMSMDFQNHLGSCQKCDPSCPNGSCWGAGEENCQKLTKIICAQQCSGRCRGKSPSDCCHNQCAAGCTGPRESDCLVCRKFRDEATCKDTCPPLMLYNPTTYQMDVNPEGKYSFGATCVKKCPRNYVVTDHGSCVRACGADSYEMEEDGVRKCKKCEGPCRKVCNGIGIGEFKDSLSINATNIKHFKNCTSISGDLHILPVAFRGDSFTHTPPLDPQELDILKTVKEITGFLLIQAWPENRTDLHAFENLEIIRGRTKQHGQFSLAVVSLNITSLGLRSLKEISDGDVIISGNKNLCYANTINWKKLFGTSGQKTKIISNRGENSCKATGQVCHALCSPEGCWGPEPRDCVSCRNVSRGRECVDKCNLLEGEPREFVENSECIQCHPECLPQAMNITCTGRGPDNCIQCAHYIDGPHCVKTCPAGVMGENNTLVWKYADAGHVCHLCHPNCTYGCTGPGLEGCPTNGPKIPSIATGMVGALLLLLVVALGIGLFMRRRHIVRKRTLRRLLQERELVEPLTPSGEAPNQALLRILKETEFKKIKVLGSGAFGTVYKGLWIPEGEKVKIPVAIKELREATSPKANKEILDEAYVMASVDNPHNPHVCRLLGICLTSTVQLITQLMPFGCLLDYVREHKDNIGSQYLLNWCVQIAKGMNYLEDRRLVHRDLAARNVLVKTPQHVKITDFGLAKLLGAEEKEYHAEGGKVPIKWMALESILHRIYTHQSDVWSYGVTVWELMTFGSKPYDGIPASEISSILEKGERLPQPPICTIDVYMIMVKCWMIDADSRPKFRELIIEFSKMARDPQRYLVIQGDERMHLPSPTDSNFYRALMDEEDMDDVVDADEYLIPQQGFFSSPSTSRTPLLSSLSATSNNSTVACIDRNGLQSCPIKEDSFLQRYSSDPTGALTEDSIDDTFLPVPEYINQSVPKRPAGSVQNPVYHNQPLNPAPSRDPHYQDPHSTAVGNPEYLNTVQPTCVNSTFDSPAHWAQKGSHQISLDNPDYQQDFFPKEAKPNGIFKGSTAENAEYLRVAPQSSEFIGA
BaF3 ERBB2 A775_G776 ins YVMA, sequence (P04626 with tags, fused parts or gaps DUP772-775): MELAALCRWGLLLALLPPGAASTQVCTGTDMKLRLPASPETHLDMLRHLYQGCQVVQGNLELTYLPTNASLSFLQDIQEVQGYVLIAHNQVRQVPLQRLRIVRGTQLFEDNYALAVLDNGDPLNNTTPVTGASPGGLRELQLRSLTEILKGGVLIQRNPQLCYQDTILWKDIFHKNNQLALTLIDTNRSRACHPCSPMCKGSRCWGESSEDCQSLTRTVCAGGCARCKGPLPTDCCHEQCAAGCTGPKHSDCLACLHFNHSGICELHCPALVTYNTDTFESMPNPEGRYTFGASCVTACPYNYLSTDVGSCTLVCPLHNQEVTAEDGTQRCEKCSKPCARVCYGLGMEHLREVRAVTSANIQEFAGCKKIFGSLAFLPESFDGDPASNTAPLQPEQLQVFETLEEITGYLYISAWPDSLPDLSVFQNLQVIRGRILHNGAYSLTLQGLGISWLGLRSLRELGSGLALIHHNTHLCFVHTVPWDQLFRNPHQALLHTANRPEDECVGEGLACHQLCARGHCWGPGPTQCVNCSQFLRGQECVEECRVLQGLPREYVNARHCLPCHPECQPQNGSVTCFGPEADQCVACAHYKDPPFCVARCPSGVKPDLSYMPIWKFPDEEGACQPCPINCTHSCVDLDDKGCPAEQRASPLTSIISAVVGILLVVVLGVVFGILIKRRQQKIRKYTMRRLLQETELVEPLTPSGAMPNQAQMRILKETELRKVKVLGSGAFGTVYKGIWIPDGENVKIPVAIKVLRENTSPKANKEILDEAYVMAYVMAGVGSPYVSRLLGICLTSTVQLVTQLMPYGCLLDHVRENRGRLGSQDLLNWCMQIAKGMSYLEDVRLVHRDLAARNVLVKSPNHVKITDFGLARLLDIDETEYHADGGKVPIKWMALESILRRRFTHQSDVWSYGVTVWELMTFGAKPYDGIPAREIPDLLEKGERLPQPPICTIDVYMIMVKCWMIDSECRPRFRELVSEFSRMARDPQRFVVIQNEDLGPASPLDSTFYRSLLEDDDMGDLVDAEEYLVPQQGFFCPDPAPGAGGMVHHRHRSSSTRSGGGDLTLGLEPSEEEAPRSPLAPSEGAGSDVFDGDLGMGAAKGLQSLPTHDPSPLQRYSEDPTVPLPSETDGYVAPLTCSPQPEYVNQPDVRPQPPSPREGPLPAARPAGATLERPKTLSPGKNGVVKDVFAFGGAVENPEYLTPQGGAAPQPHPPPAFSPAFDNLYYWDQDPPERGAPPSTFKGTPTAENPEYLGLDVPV

As for `C=CC(=O)Nc1cc(Nc2ncc(C(=O)OC(C)C)c(-c3cn(OC)c4ccccc34)n2)c(OC)cc1N(C)CCN(C)C.CS(=O)(=O)O` [Compound 1], the “Tumor volume (Day 0)” value in test [1] (Day 0 (grouping), mean ± standard error, n = 6) amounted to 153 ± 7 mm^3. Besides, in test [1] (Day 20), the RTV stood at 0.20 ± 0.10, the T/C amounted to 1.35% and the TGI is on record as 105.3%. Also, in test [1] (Day 20, mean ± standard error, n = 6), the “Tumor volume (Day 20)” value is reported as 33 ± 16 mm^3. Also, the GI50 in test [2] worked out at 15 nM. The GI50 in test [3] was 37 nM.
